Laboratory results from patent US20020137929A1, “1 - (3-heterocyclylphenyl) isothiourea, -isourea, -guanidine and -amidine herbicidal agents” (Intellectual Property Department, BASF Aktiengesellschaft, priority 1998, published 2002).

Columns and labels:
ABUTH (Velvetleaf) = experiment: Preemergence herbicidal evaluation; assay type: in vivo, Abutilon theophrasti; settings: rated 4-5 weeks after treatment
Method in brief: (§1)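 Herbicidal effect scored visually, 0-9, at 4 to 5 weeks against a control; compound applied preemergence by aqueous acetone spray to seeded soil at about 0.0156 to 0.500 kg/ha.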

[1] = system: TRZAWR (Wheat, Winter, cv Riband); experiment: Preemergence herbicidal evaluation; assay type: in vivo, Triticum aestivum; settings: rated 4-5 weeks after treatment
Method in brief: as §1

MOOVA (Monochoria) = experiment: Postemergence weed control under flooded paddy conditions; assay type: in vivo, Monochoria vaginalis; settings: postemergence weeds, 3-4 weeks after treatment
Method in brief: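 Flood-water application, about 0.0313–0.500 kg/ha a.i. in aqueous/acetone 50/50 v/v; water depth 1.5–3 cm throughout. Weeds 3–5 cm, rice 1.5–2.5 leaf. Greenhouse; 0–9 visual rating vs control at 3–4 wk.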

CYPIR (Rice Flatsedge) = experiment: Preemergence weed control under flooded paddy conditions; assay type: in vivo, Cyperus iria; settings: rated 3-4 weeks after treatment
Method in brief: (§2)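 First, seeds or propagules go into the top 0.5 cm of silt loam; next, water is held 1.5 to 3 cm over the soil; then compound (50/50 acetone/water) is pipetted into it at about 0.0313 to 0.500 kg/ha; finally plants are rated visually 0-9 after three to four weeks.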

[2] = system: ECHORC (Watergrass (Calif.)); experiment: as above; assay type: in vivo, Echinochloa oryzoides; settings: rated 3-4 weeks after treatment
Method in brief: as §2

[3] = system: SAGPY (Arrowhead (Pygmaea)); experiment: as above; assay type: in vivo, Sagittaria pygmaea; settings: rated 3-4 weeks after treatment
Method in brief: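 Ratings on a 0-9 visual scale cover stand, vigor, malformation, size, chlorosis and overall appearance relative to a control, taken three to four weeks post-treatment. Application was into flood water over freshly sown silt loam at roughly 0.0313 to 0.500 kg/ha.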

Question: Which results are given for `Cn1c(C(F)(F)F)cc(=O)n(-c2cc(N=C3SCC(=O)N3Cc3ccccc3)c(Cl)cc2F)c1=O` [Compound 26]?
Answer: Preemergence herbicidal rating ABUTH (ABUTH (Velvetleaf); rate 0.0156 kg/ha): 0.0; Preemergence herbicidal rating ABUTH (ABUTH (Velvetleaf); rate 0.0313 kg/ha): 0.0; Preemergence herbicidal rating ABUTH (ABUTH (Velvetleaf); rate 0.0625 kg/ha): 0.0; Preemergence herbicidal rating ABUTH (ABUTH (Velvetleaf); rate 0.1250 kg/ha): 6.0; Preemergence herbicidal rating ABUTH (ABUTH (Velvetleaf); rate 0.2500 kg/ha): 9.0; Preemergence herbicidal rating TRZAWR ([1]; rate 0.0156 kg/ha): 0.0; Preemergence herbicidal rating TRZAWR ([1]; rate 0.0313 kg/ha): 0.0; Preemergence herbicidal rating TRZAWR ([1]; rate 0.0625 kg/ha): 0.0; Preemergence herbicidal rating TRZAWR ([1]; rate 0.1250 kg/ha): 0.0; Preemergence herbicidal rating TRZAWR ([1]; rate 0.2500 kg/ha): 1.0; Herbicidal rating MOOVA (MOOVA (Monochoria); rate 0.0313 kg/ha): 9.0; Herbicidal rating MOOVA (MOOVA (Monochoria); rate 0.0625 kg/ha): 9.0; Herbicidal rating MOOVA (MOOVA (Monochoria); rate 0.1250 kg/ha): 9.0; Herbicidal rating MOOVA (MOOVA (Monochoria); rate 0.2500 kg/ha): 9.0; Herbicidal rating CYPIR (CYPIR (Rice Flatsedge); 0.0313 kg/ha): 2.0; Herbicidal rating CYPIR (CYPIR (Rice Flatsedge); 0.0625 kg/ha): 4.0; Herbicidal rating CYPIR (CYPIR (Rice Flatsedge); 0.1250 kg/ha): 7.0; Herbicidal rating CYPIR (CYPIR (Rice Flatsedge); 0.2500 kg/ha): 9.0; Herbicidal rating ECHORC ([2]; 0.0313 kg/ha): 7.0; Herbicidal rating ECHORC ([2]; 0.0625 kg/ha): 9.0; Herbicidal rating ECHORC ([2]; 0.1250 kg/ha): 9.0; Herbicidal rating ECHORC ([2]; 0.2500 kg/ha): 9.0; Herbicidal rating SAGPY ([3]; 0.0313 kg/ha): 0.0; Herbicidal rating SAGPY ([3]; 0.0625 kg/ha): 4.0; Herbicidal rating SAGPY ([3]; 0.1250 kg/ha): 5.0; Herbicidal rating SAGPY ([3]; 0.2500 kg/ha): 7.0

Question: With `COC(=O)CCCN1C(=O)CSC1=Nc1cc(-n2c(=O)cc(C(F)(F)F)n(C)c2=O)c(F)cc1Cl` [Compound 29, Methyl 2-{{2-chloro-5-[3,6-dihydro-3-methyl-2,6-dioxo-4-(trifluoromethyl)-1(2H)-pyrimidinyl]-4-fluorophenyl}imino}-4-oxo-3-thiazolidinebutyrate] as the compound, how does the “Preemergence herbicidal rating ABUTH” value (ABUTH (Velvetleaf); rate 0.0625 kg/ha) read?
Answer: 9.0

Question: And the “Preemergence herbicidal rating ABUTH” value (ABUTH (Velvetleaf); rate 0.1250 kg/ha)?
Answer: 9.0

Question: And the “Preemergence herbicidal rating ABUTH” value (ABUTH (Velvetleaf); rate 0.2500 kg/ha)?
Answer: 9.0

Question: What about the “Preemergence herbicidal rating TRZAWR” value ([1]; rate 0.0625 kg/ha) of the same compound?
Answer: 0.0

Question: And the “Preemergence herbicidal rating TRZAWR” value ([1]; rate 0.1250 kg/ha)?
Answer: 0.0

Question: What about the “Preemergence herbicidal rating TRZAWR” value ([1]; rate 0.2500 kg/ha) of the same compound?
Answer: 4.0

Question: And the “Herbicidal rating MOOVA” value (MOOVA (Monochoria); rate 0.0313 kg/ha)?
Answer: 0.0

Question: What about the “Herbicidal rating MOOVA” value (MOOVA (Monochoria); rate 0.0625 kg/ha) of the same compound?
Answer: 0.0

Question: And the “Herbicidal rating MOOVA” value (MOOVA (Monochoria); rate 0.1250 kg/ha)?
Answer: 0.0

Question: And the “Herbicidal rating MOOVA” value (MOOVA (Monochoria); rate 0.2500 kg/ha)?
Answer: 0.0

Question: What about the “Herbicidal rating CYPIR” value (CYPIR (Rice Flatsedge); 0.0313 kg/ha) of the same compound?
Answer: 0.0

Question: And the “Herbicidal rating CYPIR” value (CYPIR (Rice Flatsedge); 0.0625 kg/ha)?
Answer: 0.0

Question: What about the “Herbicidal rating CYPIR” value (CYPIR (Rice Flatsedge); 0.1250 kg/ha) of the same compound?
Answer: 0.0

Question: What about the “Herbicidal rating CYPIR” value (CYPIR (Rice Flatsedge); 0.2500 kg/ha) of the same compound?
Answer: 0.0

Question: What about the “Herbicidal rating ECHORC” value ([2]; 0.0313 kg/ha) of the same compound?
Answer: 4.0

Question: What about the “Herbicidal rating ECHORC” value ([2]; 0.0625 kg/ha) of the same compound?
Answer: 7.0

Question: And the “Herbicidal rating ECHORC” value ([2]; 0.1250 kg/ha)?
Answer: 7.0

Question: What about the “Herbicidal rating ECHORC” value ([2]; 0.2500 kg/ha) of the same compound?
Answer: 7.0

Question: And the “Herbicidal rating SAGPY” value ([3]; 0.0313 kg/ha)?
Answer: 0.0

Question: What about the “Herbicidal rating SAGPY” value ([3]; 0.0625 kg/ha) of the same compound?
Answer: 0.0

Question: What about the “Herbicidal rating SAGPY” value ([3]; 0.1250 kg/ha) of the same compound?
Answer: 0.0

Question: What about the “Herbicidal rating SAGPY” value ([3]; 0.2500 kg/ha) of the same compound?
Answer: 0.0

Question: For `Cn1c(C(F)(F)F)cc(=O)n(-c2cc(N=C3NC(=O)CS3)c(Cl)cc2F)c1=O` [Compound 39, 3-{4-Chloro-2-fluoro-5-[(4-oxo-2-thiazolidinylidene)amino]phenyl}-1-methyl-6-(trifluoromethyl)-2,4(1H,3H)-pyrimidinedione], which “Preemergence herbicidal rating ABUTH” value (ABUTH (Velvetleaf); rate 0.0156 kg/ha) is on record?
Answer: 0.0

Question: What about the “Preemergence herbicidal rating ABUTH” value (ABUTH (Velvetleaf); rate 0.0313 kg/ha) of the same compound?
Answer: 0.0

Question: What about the “Preemergence herbicidal rating ABUTH” value (ABUTH (Velvetleaf); rate 0.0625 kg/ha) of the same compound?
Answer: 1.0

Question: What about the “Preemergence herbicidal rating ABUTH” value (ABUTH (Velvetleaf); rate 0.1250 kg/ha) of the same compound?
Answer: 9.0

Question: And the “Preemergence herbicidal rating ABUTH” value (ABUTH (Velvetleaf); rate 0.2500 kg/ha)?
Answer: 9.0

Question: And the “Preemergence herbicidal rating TRZAWR” value ([1]; rate 0.0156 kg/ha)?
Answer: 0.0

Question: What about the “Preemergence herbicidal rating TRZAWR” value ([1]; rate 0.0313 kg/ha) of the same compound?
Answer: 0.0

Question: What about the “Preemergence herbicidal rating TRZAWR” value ([1]; rate 0.0625 kg/ha) of the same compound?
Answer: 0.0

Question: What about the “Preemergence herbicidal rating TRZAWR” value ([1]; rate 0.1250 kg/ha) of the same compound?
Answer: 1.0

Question: What about the “Preemergence herbicidal rating TRZAWR” value ([1]; rate 0.2500 kg/ha) of the same compound?
Answer: 2.0

Question: And the “Herbicidal rating MOOVA” value (MOOVA (Monochoria); rate 0.0313 kg/ha)?
Answer: 9.0

Question: And the “Herbicidal rating MOOVA” value (MOOVA (Monochoria); rate 0.0625 kg/ha)?
Answer: 9.0

Question: What about the “Herbicidal rating MOOVA” value (MOOVA (Monochoria); rate 0.1250 kg/ha) of the same compound?
Answer: 9.0

Question: And the “Herbicidal rating MOOVA” value (MOOVA (Monochoria); rate 0.2500 kg/ha)?
Answer: 9.0

Question: What about the “Herbicidal rating CYPIR” value (CYPIR (Rice Flatsedge); 0.0313 kg/ha) of the same compound?
Answer: 0.0

Question: What about the “Herbicidal rating CYPIR” value (CYPIR (Rice Flatsedge); 0.0625 kg/ha) of the same compound?
Answer: 0.0

Question: What about the “Herbicidal rating CYPIR” value (CYPIR (Rice Flatsedge); 0.1250 kg/ha) of the same compound?
Answer: 0.0

Question: What about the “Herbicidal rating CYPIR” value (CYPIR (Rice Flatsedge); 0.2500 kg/ha) of the same compound?
Answer: 0.0

Question: And the “Herbicidal rating ECHORC” value ([2]; 0.0313 kg/ha)?
Answer: 0.0

Question: What about the “Herbicidal rating ECHORC” value ([2]; 0.0625 kg/ha) of the same compound?
Answer: 0.0

Question: What about the “Herbicidal rating ECHORC” value ([2]; 0.1250 kg/ha) of the same compound?
Answer: 2.0

Question: And the “Herbicidal rating ECHORC” value ([2]; 0.2500 kg/ha)?
Answer: 3.0

Question: What about the “Herbicidal rating SAGPY” value ([3]; 0.0313 kg/ha) of the same compound?
Answer: 0.0

Question: What about the “Herbicidal rating SAGPY” value ([3]; 0.0625 kg/ha) of the same compound?
Answer: 0.0

Question: And the “Herbicidal rating SAGPY” value ([3]; 0.1250 kg/ha)?
Answer: 0.0

Question: What about the “Herbicidal rating SAGPY” value ([3]; 0.2500 kg/ha) of the same compound?
Answer: 4.0
